# Measured values from US11504394B2, “Targeted ionophore-based metal delivery” (The Regents of the University of California, priority 2018, dated 2022).
# Assays:
# MT-I/MT-II = assay: Western blot of liver lysates, MT-I/II; format: in vivo, mouse; conditions: 6 hours and 24 hours
# Method: (§1) Frozen mouse livers were minced into 50 mg samples on dry ice and homogenized in ice-cold RIPA buffer (25 mM Tris.HCl pH 7.6, 150 mM NaCl, 1% NP-40, 1% sodium deoxycholate, 0.1% SDS) containing protease inhibitor cocktail with EDTA (Roche) at 100 mg/mL using a hand-held mechanical homogenizer. Homogenates were incubated on ice for 30 min and centrifuged at 12,000×g for 20 min at 4° C. The soluble protein lysates were collected from underneath the upper lipid layer with a pipette and transferred to new tubes. Protein concentration was determined using a detergent-compatible Bradford Assay (Pierce).
# (§2) Protein lysates were denatured in NuPAGE lithium dodecyl sulfate sample buffer (Invitrogen) containing 10% v/v β-mercaptoethanol as a reducing agent. […] The membranes were washed 5 times for 5 minutes in TBST, then visualized using enhanced chemiluminescence (Western Lighting Plus for visualizing CCS and ATP7B, Perkin Elmer; Western Clarity Max for visualizing CTR1 and MT, Bio-Rad) recorded on a BioRad GelDoc imaging station. β-actin was probed to determine equal loading using anti-β-actin (sc-69879, Santa Cruz Biotechnology) and AlexaFluor 647-conjugated anti-mouse IgG (A31571, Molecular Probes) antibodies at 1:5000 and 1:2500 dilutions, respectively, with visualization using fluorescence recorded on a BioRad GelDoc imaging station.
# [1] = tested on: HEK 293T (no ASGPR expression) cells; assay: Cellular copper delivery by ICP-MS, HEK 293T; format: cell-based; conditions: 4 μM, three hours, serum-free DMEM
# Method: Cells were maintained by the UC Berkeley Tissue Culture Facility. HEK 293T and HepG2 cells were maintained as a monolayer in exponential growth at 37° C. in a 5% CO2 atmosphere. HEK 293T cells were maintained in Dulbecco's Modified Eagle Medium (DMEM, Gibco) supplemented with 10% fetal bovine serum (FBS, Hyclone), and glutamax (Gibco). HepG2 cells were maintained in low glucose DMEM with L-glutamine and sodium pyruvate (Gibco). One day before ionophore treatment, cells were passaged and plated in DMEM with glutamax supplemented with 10% FBS on either poly D-lysine-coated (HEK 293T) or gelatin-coated (HepG2) sterile 6-well Corning polystyrene plates. Cells were grown to 60 to 80% confluency prior to ionophore treatment.
# Cells were washed twice with serum-free DMEM. 2 mM stock solutions of Cu(gtsm) or Gal-Cu(gtsm) were diluted in serum-free DMEM to a final ionophore concentration of 4 μM. […] Samples (150 μL) were further diluted in 2 mL 2% nitric acid (made freshly from concentrated nitric acid and Milli-Q water) in 15 mL tubes (Sarstedt) and analyzed on a Thermo Fisher iCAP Qc ICP mass spectrometer in kinetic energy discrimination (KED) mode against a standard curve of known copper and phosphorus concentrations (CMS-5, Inorganic Ventures), with Ga (20 μg/L, Inorganic Ventures) as an internal standard. […]
# ATP7B = assay: Western blot of liver lysates, ATP7B; format: in vivo, mouse; conditions: 6 and 24 hours
# Method: as §1, §2
# labile Cu^+ pool = assay: In vivo bioluminescence imaging with CCL-1 / D-Luc, liver region; design: species or system FVB-luc^+ mice; conditions: 24 hours after ionophore, 0.75 mg Cu/kg i.p.
# Method: A Xenogen IVIS Spectrum instrument (Caliper Life Sciences) was used for bioluminescence imaging in all animal experiments, and image analysis was performed using the Living Image software. The total photon flux for each animal was determined by drawing a region of interest around the liver and integrating photon flux over the total imaging period (area under the curve). We selected our liver region of interest based on comparing the bioluminescence data in vivo and ex vivo, as described in our previous studies with the CCL-1 probe.^27 The same region of interest around the liver was applied to analyzing both the CCL-1 and D-Luc data. The data plotted in FIG. 8A represents the ratio of CCL-1 integrated photon flux to basal D-luc integrated photon flux. Mice were anesthetized prior to injection and during imaging via inhalation of isoflurane. Isoflurane was purchased from Phoenix Pharmaceuticals, Inc. DMSO was purchased from Sigma-Aldrich, Dulbecco's phosphate buffered saline was purchased from Gibco, and medical-grade oxygen was purchased from Praxair.
# FVB-luc+ mice were given intraperitoneal (i.p.) injections of vehicle (50 μL 1:1 DMSO:DPBS), 3.46 mg/kg Cu(gtsm), or 7.26 mg/kg Gal-Cu(gtsm) under anesthesia with isoflurane. The ionophore concentrations were chosen to give an equivalent copper dose of 0.75 mg Cu/kg mouse at 0.6 mg Cu/mL vehicle. […]
structure (smiles),measurement,setting,value
CNC1=N[N+]2=CC=[N+]3N=C(NCCOCCOCCOC4OC(CO)C(O)C(O)C4NC(C)=O)[S][Cu-2]23[S]1 (stereo not shown) [Gal-Cu(gtsm)],MT-I/MT-II expression in liver,MT-I/MT-II,increases dramatically
same,Cu increase relative to basal levels (^63Cu/^31P),[1],does not increase cellular copper beyond basal levels
same,ATP7B expression in liver,ATP7B,increased
same,bioluminescent CCL-1/D-luc liver signal,labile Cu^+ pool,returns to basal levels
